Legend:
Glucose oxidase = Glucose oxidase (Aspergillus niger, UniProt P13006); assay: Stabilization and precipitation of glucose oxidase by SPS; assay type: physicochemical
Glucagon = Glucagon (Homo sapiens, UniProt P01275); assay: Entrapment and precipitation of glucagon in SPS particles; assay type: physicochemical
Description: Synthesis of SPS and Precipitation of Glucagon
These sequences are soluble at very low pH and form microparticles that trap peptides in solution within the particles. They remain intact at pH 3-5 in the vicinity of their isoelectric point. Solubility increases in the physiological pH range.

[1] = pH of the solution brought to neutral

Glucagon, sequence (P01275 53-81 limits assumed, species assumed): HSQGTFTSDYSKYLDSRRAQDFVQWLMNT
Glucose oxidase, sequence (P13006 17-605, species assumed): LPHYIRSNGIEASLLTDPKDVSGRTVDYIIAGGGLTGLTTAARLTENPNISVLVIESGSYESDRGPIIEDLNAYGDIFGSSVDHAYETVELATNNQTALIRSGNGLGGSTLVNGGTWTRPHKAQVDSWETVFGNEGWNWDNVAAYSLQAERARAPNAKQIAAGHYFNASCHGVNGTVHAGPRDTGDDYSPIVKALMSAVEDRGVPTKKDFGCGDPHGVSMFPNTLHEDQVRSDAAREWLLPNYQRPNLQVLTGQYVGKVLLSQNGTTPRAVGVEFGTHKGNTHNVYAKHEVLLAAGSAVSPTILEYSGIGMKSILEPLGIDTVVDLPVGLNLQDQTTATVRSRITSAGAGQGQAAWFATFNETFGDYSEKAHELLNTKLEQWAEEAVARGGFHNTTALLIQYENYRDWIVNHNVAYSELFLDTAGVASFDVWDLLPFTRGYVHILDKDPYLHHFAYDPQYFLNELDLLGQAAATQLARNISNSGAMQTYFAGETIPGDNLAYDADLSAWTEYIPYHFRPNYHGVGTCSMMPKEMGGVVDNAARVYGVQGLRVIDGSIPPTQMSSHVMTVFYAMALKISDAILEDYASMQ

H-Aspartic Acid-Tryptophan-Aspartic Acid —OH
stabilization and precipitation of glucose oxidase (Glucose oxidase; in aqueous solution, stored along with insulin glargine at a pH of 4): stabilized and precipitated
release of glucose oxidase (Glucose oxidase; [1]): released intact
glucagon remained in the particles (entrapment efficiency) (Glucagon; glucagon entrapped in SPS particles): more than 60%
stabilization of glucagon (Glucagon; in aqueous solution): stabilized it in aqueous solution
release of glucagon (Glucagon; [1]): released the glucagon intact

— US20120087985A1, “SMALL PEPTIDE SEQUENCES FOR STABILIZING BIOMOLECULES” (Biodel Inc., priority 2010, published 2012)
